Test results: ChEMBL document CHEMBL1201862, “PubChem BioAssay data set” (2004)
Active and inactive are the calls of the source.

Tests used:
[1] = molecular target: Cystic fibrosis transmembrane conductance regulator/Golgi-associated PDZ and coiled-coil motif-containing protein (Homo sapiens, UniProt P13569+Q9HD26); experiment: potency against CAL PDZ-peptide interaction – biochemical, fluorescence polarization, Cerulean-tagged CAL PDZ, cherry-picks, dose response (AID 504773)
[2] = molecular target: Nonstructural protein 1 (Influenza A virus, UniProt Q194T2); type: functional, Influenza A virus (A/California/07/2009(H1N1))
Chain of Nonstructural protein 1 (Q194T2 whole entry): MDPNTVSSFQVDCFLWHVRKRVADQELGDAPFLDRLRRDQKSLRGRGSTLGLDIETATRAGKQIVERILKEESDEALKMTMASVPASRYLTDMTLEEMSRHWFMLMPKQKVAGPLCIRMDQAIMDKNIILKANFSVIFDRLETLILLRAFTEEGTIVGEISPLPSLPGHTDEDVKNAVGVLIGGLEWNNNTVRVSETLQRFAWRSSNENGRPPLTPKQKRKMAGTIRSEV

[3] = molecular target: Heat shock protein HSP 90-alpha (Homo sapiens, UniProt P07900); type: functional, organism-based
[4] = HGIII-sPLA2 enzyme inhibition potency – biochemical, QFRET, IC50, dose response (AID 743457);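 note: green fluorescence rise as the enzyme cleaves BODIPY PC-A2 in liposomes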
[5] = molecular target: Acyl-homoserine lactone acylase PvdQ (Pseudomonas aeruginosa (strain LESB58), UniProt Q9I194); experiment: PvdQ acylase enzyme activity blockers – biochemical, fluorescence, plate reader and imaging, cherry-picks, dose response (AID 493231)
Chain of Acyl-homoserine lactone acylase PvdQ (Q9I194 24-193 limits assumed): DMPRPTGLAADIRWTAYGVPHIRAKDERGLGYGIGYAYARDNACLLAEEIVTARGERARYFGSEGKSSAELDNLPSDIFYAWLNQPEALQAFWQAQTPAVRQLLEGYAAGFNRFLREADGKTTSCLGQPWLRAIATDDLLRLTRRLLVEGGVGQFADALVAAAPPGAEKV
Chain of Acyl-homoserine lactone acylase PvdQ (Q9I194 217-762 limits assumed): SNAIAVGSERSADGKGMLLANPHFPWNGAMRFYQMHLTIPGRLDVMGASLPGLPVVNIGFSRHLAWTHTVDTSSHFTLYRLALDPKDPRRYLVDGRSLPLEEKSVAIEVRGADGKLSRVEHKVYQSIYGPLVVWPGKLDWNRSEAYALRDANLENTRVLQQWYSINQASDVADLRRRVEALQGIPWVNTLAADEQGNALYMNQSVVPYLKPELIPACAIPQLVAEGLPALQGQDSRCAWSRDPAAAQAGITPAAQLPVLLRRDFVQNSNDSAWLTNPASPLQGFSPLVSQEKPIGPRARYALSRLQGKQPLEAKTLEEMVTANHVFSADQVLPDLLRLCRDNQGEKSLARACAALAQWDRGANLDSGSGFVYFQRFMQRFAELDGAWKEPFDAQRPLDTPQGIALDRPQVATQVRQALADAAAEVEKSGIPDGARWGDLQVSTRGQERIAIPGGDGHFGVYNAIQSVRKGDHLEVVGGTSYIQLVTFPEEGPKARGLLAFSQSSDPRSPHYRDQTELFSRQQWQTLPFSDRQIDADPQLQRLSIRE

[6] = molecular target: T1, Interleukin-8 (Homo sapiens, UniProt P10145); experiment: Dose Response confirmation of uHTS small molecule hits for cystic fibrosis induced NFkb Inhibitors in a TNFa-induced IL8 counterscreen.; type: functional; conditions: read-out: IC50_Mean
T1 sequence (P10145 whole entry): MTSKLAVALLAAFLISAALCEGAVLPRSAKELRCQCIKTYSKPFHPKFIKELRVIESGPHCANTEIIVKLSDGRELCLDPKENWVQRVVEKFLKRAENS

[7] = molecular target: T1, Interleukin-8; experiment: Dose Response confirmation of uHTS small molecule hits for cystic fibrosis induced NFkb Inhibitors in a PAF-induced IL8 counterscreen.; type: functional; conditions: read-out: IC50_Mean
[8] = molecular target: T2, Ubiquitin-conjugating enzyme E2 N (Homo sapiens, UniProt P61088); type: functional
T2 sequence (P61088 whole entry): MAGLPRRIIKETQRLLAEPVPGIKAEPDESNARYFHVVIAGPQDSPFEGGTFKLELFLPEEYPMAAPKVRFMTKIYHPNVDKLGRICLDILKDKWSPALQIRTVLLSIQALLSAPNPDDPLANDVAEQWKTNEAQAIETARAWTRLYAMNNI

[9] = molecular target: Beta-galactosidase (Escherichia coli, UniProt Q8VNN2); experiment: Dose response counterscreen for EBI2 assay utilizing the enzyme, b-galactosidase.; type: functional
[10] = molecular target: Bcl-2-related protein A1 (Mus musculus, UniProt Q07440); type: functional;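 note: confirmatory dose–response counterscreen on Bfl-1, used to check hits from a UBC13 polyubiquitin inhibitor campaign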
Chain of Bcl-2-related protein A1 (Q07440 whole entry): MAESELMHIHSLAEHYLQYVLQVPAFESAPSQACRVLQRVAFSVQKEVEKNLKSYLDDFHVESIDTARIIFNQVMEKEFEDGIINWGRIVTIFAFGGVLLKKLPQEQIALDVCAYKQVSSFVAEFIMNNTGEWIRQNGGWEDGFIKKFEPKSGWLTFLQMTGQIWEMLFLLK

[11] = molecular target: T2, Ubiquitin-conjugating enzyme E2 N; type: functional; remark: listed apart in the source
[12] = molecular target: T3, E3 ubiquitin-protein ligase XIAP (Homo sapiens, UniProt P98170); experiment: Counter Screen using XIAP-Bir3 for Chemical Antagonists of Bir1/2 domains of IAP-family anti-apoptotic proteins. [Related pubchem assays (depositor defined):AID1018, AID1449, AID1514, AID1638, AID1749, AID1750, AID488957, AID488963]
T3 sequence (P98170 whole entry): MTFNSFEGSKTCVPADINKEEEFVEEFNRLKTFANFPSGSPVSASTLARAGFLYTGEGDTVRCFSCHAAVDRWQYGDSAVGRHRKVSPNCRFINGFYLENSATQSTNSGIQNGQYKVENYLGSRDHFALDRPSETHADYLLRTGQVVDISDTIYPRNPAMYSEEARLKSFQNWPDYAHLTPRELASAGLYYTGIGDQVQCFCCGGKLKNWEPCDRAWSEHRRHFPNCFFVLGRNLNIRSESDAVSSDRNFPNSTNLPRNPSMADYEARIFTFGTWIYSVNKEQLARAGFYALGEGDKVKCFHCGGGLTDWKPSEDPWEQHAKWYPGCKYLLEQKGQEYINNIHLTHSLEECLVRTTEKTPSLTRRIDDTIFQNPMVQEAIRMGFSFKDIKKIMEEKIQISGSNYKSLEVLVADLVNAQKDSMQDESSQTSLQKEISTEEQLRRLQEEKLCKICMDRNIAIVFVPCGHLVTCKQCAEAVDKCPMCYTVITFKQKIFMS

[13] = molecular target: T3, E3 ubiquitin-protein ligase XIAP; experiment: small molecules displacing peptide from XIAP – biochemical, IAP family, fluorescence polarization (AID 1018); type: functional
[14] = molecular target: Female germline-specific tumor suppressor gld-1 (Caenorhabditis elegans, UniProt Q17339); experiment: blockers of GLD-1/TGE RNA complex formation – biochemical, fluorescence polarization, C. elegans, dose response (AID 2802);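 note: fluorescence polarization of labeled TGE RNA bound by purified gld-1 protein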
Chain of Female germline-specific tumor suppressor gld-1 (Q17339 whole entry): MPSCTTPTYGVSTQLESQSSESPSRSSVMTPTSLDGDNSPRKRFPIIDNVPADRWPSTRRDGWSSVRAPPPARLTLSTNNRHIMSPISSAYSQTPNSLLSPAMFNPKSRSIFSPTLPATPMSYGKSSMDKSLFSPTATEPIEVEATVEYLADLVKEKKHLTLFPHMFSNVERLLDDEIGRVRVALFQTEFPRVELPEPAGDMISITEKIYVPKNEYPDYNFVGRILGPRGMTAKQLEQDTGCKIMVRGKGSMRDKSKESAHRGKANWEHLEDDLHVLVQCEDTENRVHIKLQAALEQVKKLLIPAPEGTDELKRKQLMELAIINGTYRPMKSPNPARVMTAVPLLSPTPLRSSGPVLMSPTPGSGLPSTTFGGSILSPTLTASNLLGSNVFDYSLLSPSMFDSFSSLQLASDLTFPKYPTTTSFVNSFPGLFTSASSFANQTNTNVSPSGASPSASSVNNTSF

[15] = molecular target: Protein Rev (Human immunodeficiency virus type 1 group M subtype B (isolate HXB2)(HIV-1), UniProt P04618); experiment: blockers of HIV Rev/RRE RNA complex – biochemical, fluorescence polarization, HIV-1, dose response (AID 434976); design: species or system Human immunodeficiency virus 1
Chain of Protein Rev (P04618 whole entry): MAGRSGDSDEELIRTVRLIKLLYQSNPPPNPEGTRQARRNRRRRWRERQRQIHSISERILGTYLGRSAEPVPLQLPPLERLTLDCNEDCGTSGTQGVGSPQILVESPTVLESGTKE

[16] = NIH-3T3 fibroblast cytotoxicity, dose response, cytotoxicity control, cell-based, fluorescence, Alamar Blue, secondary assay (AID 2327); type: functional;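 note: NIH-3T3 mouse fibroblasts cultured with fluconazole at 8 µg/mL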
[17] = antiviral protection against BTV-induced cell death – arbovirus, BSR cells, confirmation (AID 1250); type: functional;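 note: protection from viral cytopathic effect measured as cell viability by ATP luminescence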
[18] = molecular target: T4, Serine/threonine-protein phosphatase (Candida dubliniensis (strain CD36 / CBS 7987 / NCPF 3949 / NRRLY-17841) (Yeast), UniProt B9W6M3); experiment: blockers of CaCl2-induced CDRE-lacZ signaling – S. cerevisiae, luminescence, secondary, dose response (AID 2388); type: functional, cell-based;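 note: yeast reporter cells carrying a calcineurin-responsive lacZ construct stimulated with calcium chloride; luminescent beta-galactosidase reporter signal in whole cells rather than isolated phosphatase activity; potency for inhibition where a drop in reporter signal means calcineurin blockade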
T4 sequence (B9W6M3 whole entry): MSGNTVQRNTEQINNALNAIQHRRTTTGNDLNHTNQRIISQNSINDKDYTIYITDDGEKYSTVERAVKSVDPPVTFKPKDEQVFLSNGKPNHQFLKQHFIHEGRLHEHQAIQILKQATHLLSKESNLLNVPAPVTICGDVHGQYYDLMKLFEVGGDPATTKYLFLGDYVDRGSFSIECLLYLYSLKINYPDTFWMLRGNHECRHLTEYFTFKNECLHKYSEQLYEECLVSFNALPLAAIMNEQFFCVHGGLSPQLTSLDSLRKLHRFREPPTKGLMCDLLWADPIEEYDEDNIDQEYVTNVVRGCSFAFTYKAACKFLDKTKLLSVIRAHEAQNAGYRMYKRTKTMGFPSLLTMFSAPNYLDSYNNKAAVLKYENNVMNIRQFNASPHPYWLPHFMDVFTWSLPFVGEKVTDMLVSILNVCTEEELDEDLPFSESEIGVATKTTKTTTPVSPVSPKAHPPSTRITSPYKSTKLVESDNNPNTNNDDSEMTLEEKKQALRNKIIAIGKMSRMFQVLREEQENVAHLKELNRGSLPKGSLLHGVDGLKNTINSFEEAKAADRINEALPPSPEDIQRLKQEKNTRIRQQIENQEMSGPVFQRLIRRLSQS

[19] = fluconazole-exposed Candida albicans growth modulators – fluorescence, retest, confirmation (AID 2467); type: functional, cell-based
[20] = molecular target: ATP-dependent molecular chaperone HSP82 (Candida albicans (strain WO-1) (Yeast), UniProt C4YTQ8); experiment: steroid-induced GRE reporter decrease in yeast – S. cerevisiae, luminescence, Hsp90 inhibitor project, dose response (AID 2400); type: functional, cell-based;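 note: beta-galactosidase luminescence from glucocorticoid response element reporter as proxy for Hsp90 function; inhibitor potency where signal loss means Hsp90 inhibition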
[21] = molecular target: G-protein coupled receptor 55 (Homo sapiens, UniProt Q9Y2T6); experiment: inhibition of LPI-stimulated GPR55 beta-arrestin translocation – imaging, U2OS, beta-arrestin-GFP, LPI agonist, primary screen (AID 2013); type: functional;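 note: antagonist potency measured as reduced agonist-driven arrestin aggregation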
Chain of G-protein coupled receptor 55 (Q9Y2T6 whole entry): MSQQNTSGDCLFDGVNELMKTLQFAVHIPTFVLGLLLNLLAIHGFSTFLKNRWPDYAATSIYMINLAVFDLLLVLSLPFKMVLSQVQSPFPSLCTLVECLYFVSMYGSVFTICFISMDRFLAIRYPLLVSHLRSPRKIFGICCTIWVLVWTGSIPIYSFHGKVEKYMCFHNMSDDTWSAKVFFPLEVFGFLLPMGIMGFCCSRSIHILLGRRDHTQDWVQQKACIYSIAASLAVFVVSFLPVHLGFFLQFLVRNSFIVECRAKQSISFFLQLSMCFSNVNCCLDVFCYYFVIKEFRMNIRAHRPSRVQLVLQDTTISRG

[22] = molecular target: T5, Fatty acid synthase (Homo sapiens, UniProt P49327); experiment: inhibition of human FAS-TE enzyme activity – biochemical, endpoint fluorescence intensity, uHTS hits, dose response (AID 624327); type: functional;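 note: fluorescence from hydrolysis of an O-methyl fluorescein acyl ester substrate by the enzyme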
T5 sequence (P49327 whole entry): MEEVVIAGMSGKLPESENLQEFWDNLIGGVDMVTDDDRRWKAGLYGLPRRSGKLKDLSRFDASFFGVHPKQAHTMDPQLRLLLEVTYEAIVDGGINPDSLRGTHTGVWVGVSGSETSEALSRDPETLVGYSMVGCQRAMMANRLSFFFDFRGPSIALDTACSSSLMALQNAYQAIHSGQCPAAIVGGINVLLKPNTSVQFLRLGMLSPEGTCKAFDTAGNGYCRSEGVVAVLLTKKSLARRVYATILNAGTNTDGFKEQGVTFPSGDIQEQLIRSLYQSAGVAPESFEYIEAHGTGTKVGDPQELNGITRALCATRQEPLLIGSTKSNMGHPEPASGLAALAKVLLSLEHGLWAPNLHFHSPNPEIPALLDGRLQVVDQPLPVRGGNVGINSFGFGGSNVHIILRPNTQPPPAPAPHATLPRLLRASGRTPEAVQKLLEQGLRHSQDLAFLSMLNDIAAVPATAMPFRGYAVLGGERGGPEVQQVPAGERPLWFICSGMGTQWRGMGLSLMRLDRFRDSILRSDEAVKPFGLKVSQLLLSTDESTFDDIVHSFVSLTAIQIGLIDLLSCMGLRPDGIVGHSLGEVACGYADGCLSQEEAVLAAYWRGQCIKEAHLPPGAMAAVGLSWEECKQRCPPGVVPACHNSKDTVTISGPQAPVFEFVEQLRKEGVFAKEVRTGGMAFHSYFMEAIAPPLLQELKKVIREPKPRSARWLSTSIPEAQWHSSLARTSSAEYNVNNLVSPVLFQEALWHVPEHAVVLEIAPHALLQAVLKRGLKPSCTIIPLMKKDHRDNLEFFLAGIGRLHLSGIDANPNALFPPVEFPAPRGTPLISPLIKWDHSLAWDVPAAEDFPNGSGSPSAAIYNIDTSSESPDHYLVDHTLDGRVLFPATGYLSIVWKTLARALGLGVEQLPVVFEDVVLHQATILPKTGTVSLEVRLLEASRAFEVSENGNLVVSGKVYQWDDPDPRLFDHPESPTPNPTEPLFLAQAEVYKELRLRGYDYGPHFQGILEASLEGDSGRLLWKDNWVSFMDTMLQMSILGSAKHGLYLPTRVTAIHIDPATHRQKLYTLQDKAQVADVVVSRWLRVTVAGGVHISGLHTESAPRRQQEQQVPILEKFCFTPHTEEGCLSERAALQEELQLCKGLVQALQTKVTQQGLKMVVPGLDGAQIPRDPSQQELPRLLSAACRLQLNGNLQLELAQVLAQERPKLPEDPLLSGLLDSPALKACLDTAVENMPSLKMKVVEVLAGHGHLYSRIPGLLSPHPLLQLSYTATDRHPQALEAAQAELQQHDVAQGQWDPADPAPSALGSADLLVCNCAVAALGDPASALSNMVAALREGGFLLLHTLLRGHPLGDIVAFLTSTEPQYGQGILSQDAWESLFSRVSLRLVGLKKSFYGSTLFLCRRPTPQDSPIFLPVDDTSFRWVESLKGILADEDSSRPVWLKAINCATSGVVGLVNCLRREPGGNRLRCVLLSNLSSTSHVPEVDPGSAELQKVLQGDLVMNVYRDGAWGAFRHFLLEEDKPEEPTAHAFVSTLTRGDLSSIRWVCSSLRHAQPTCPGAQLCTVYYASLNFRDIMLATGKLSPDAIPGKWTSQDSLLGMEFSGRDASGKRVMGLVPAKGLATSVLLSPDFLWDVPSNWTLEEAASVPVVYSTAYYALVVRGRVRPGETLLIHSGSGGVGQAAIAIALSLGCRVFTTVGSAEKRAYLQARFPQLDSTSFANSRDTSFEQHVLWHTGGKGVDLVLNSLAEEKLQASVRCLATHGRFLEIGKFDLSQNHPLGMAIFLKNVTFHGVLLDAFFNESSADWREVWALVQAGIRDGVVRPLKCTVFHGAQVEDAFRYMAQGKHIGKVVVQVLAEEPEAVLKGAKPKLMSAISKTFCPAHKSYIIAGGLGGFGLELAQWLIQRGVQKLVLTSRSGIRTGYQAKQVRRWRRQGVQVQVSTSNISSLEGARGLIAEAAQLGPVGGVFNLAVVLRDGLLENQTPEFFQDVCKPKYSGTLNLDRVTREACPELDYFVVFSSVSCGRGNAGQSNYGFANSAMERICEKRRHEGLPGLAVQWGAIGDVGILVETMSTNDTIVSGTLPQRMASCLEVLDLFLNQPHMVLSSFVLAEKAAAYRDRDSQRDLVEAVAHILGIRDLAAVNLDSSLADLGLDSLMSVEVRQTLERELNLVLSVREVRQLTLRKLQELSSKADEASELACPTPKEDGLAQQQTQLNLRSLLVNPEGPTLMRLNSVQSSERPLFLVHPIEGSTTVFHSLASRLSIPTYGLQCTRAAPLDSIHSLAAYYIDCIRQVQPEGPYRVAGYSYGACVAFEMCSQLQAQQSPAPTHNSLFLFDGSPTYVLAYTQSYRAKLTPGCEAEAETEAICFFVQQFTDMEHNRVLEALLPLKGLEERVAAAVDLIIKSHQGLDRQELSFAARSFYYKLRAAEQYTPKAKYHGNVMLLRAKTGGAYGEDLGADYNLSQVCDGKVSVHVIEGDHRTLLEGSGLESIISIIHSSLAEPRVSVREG

[23] = molecular target: T5, Fatty acid synthase; experiment: inhibition of human FAS-TE enzyme activity – biochemical, kinetic fluorescence intensity, dose response (AID 624326); type: functional;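 note: rate of fluorescence rise from hydrolysis of a fluorogenic O-methyl fluorescein ester substrate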

CN(C)c1ccc(/C=c2\c3ccccc3n3c2cc(-c2ccccc2)[n+]3C)cc1
AC50 [1]: 94 µM (active)
IC50 [2]: 6.8 µM (active)
AC50 [3]: 4.19 µM (active)
IC50 [4]: 66.8 µM (inactive)

CN(c1ncnc(N)c1[N+](=O)[O-])C1CCCCC1
AC50 [5]: 15.3 µM (active)
IC50 [6]: 46.8 µM (inactive)
IC50 [7]: 16.9 µM (inactive)

Cc1ccc(N(C(=O)c2snc(C(N)=O)c2N)C(C(=O)NC2CCCC2)c2ccc(C)o2)cc1 (stereo not given)
IC50 [8]: 10.4 µM (active)
IC50 [9]: > 80 µM (inactive)
IC50 [10]: > 20 µM (inactive)
IC50 [11]: 19.9 µM (active)

O=C(O)C1C2C=CC(C2)C1C(=O)Nc1ccc(C(=O)N2CCCCC2)cc1 (stereo not given)
IC50 [12]: > 100 µM (inactive)
IC50 [13]: > 100 µM (not active)

CCOC(=O)c1cc2c(ccn2C)n1CC(=O)N1CCN(c2cccc(C(F)(F)F)c2)CC1
IC50 [14]: > 6.63 µM (active)
IC50 [15]: > 75.4 µM (not active)

COc1ccc(CCC(=O)OCC(=O)Nc2ccc(C)c(S(=O)(=O)N(C)C)c2)cc1
IC50 [12]: > 100 µM (inactive)
IC50 [13]: > 100 µM (not active)

Cc1oc2ccc(OC(=O)N(C)C)cc2c1C(=O)OC(C)C
EC50 [16]: 137 µM (inconclusive)
IC50 [17]: 35.1 µM (active)
EC50 [18]: > 180 µM (inactive)
EC50 [19]: 1.34 µM (active)
EC50 [20]: > 160 µM (inactive)

CCS(=O)(=O)c1ccc(-c2csc(-c3ccc(Cl)cc3)n2)c(Cl)c1Cl
IC50 [21]: 5.51 µM (active)
IC50 [22]: 2.71 µM (active)
IC50 [23]: 1.86 µM (active)
